# Assay: Apparent intrinsic clearance in human liver microsomes
# Assay type: ADME, Microsome
row,microsomal CLint [µL/min/mg],Structure (SMILES)
1,10,C[C@@H]1CCN(C(=O)CC#N)C[C@@H]1N(C)c1ncnc2[nH]ccc12 [TOFACITINIB]
2,8,CC1CCN(C(=O)CS(C)(=O)=O)CC1N(C)c1ncnc2[nH]ccc12 (centres undefined)
3,11,CC1CCN(C(=O)C2CCOC2)CC1N(C)c1ncnc2[nH]ccc12 (centres undefined)
4,16,CC1CCN(C(=O)CC(F)(F)F)CC1N(C)c1ncnc2[nH]ccc12 (centres undefined)
